Experiment [1] relates to TXA2. In words: TXA2 antagonism in general (statement in words). The source says:
(§1) As stated earlier, the acids of formula I are antagonists of one or more of the actions of TXA2, for example certain of its actions on blood platelets, the vasculature and/or the lung.

In experiment [2] the target is T1, U46619 stimulated platelet aggregation (Homo sapiens, UniProt P21731).
T1 construct: human, citrated, platelet-rich plasma; endogenous in cells; host or cells: human platelets in citrated platelet-rich plasma
T1 sequence (P21731 1-343): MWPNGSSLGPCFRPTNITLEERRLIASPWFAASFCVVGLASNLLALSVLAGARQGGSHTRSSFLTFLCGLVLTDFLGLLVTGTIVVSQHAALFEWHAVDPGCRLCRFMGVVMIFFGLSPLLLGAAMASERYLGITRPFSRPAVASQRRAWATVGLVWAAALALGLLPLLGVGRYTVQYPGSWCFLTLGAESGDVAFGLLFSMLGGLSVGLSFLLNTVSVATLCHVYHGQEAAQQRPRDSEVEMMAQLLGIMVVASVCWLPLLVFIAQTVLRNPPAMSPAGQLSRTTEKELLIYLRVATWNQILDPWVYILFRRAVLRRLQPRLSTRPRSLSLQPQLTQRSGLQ
In words: Test (b) blood platelet aggregation test (human citrated platelet-rich plasma, U46619). Type of experiment: cell-based. The note with it: U46619 stimulated aggregation of human platelets; averaged over several concentrations. The source says:
(b) A blood platelet aggregation test based on that described by Born (Nature, 1962, 194, 927-929) and involving:
(i) aggregating human, citrated, platelet-rich plasma by addition of the TXA2 mimetic agent U46619 so that a dose-response curve is generated,
(ii) generating a dose-response curve for U46619 stimulated platelet aggregation in the presence of decreasing amounts of test compound (generally in the range 10^-5 M to 10^-10 M); and
(iii) calculating a KB value indicating potency of TXA2 antagonism for the test compound, averaged over several concentrations, from the calculated 50% response value for U46619 aggregation in the presence and absence of test compound; and […]

Experiment [3] deals with U46619 induced bronchoconstriction. In words: Test (c) bronchoconstriction test, Konzett-Rossler anaesthetised guinea-pig model. The settings on record: 2 hours after oral dosing at 0.05 mg/kg. Type of experiment: in vivo. The text has this: (c) a bronchoconstriction test involving measuring the inhibition by a test compound of the broncho-constriction induced in the Konzett-Rossler, anaesthetised guinea-pig model (as modified by Collier and James, Brit.J.Pharmacol., 1967, 30, 283-307) by intravenous administration of the TXA2 mimetic agent, U46619 and involving:
(i) obtaining a cumulative dose-response curve to U46619 induced bronchoconstriction by intravenous administration of constant volumes of increasing concentrations of U46619 (0.2-4 μg/kg) in physiological saline solution and expressing bronchoconstriction as the maximum of that theoretically obtainable with no air flow to the test animal;
(ii) generating a cumulative dose-response curve to U46619 induced bronchoconstriction at 30 minute intervals for 3 hours after oral dosing of test compound; and
(iii) calculating a dose-ratio for the test compound (that is the ratio of concentration of U46619 required to cause 50% bronchoconstriction in the presence and absence of test compound) indicating the potency of TXA2 antagonism.

The test system of experiment [4] is TXA2. Description: Test (a) rabbit aortal strip model, U46619 as agonist. Type of experiment: cell-based. The settings on record: ±0.05. The method, then:
as §1
(a) The rabbit aortal strip model devised by Piper and Vane (Nature, 1969, 223, 29-35) using as agonist a freshly prepared sample of TXA2, generated by addition of arachidonic acid (25 μg) to citrated, platelet rich rabbit plasma (250 μl) and allowing the mixture to aggregate fully over 90 seconds before use; alternatively the TXA2 mimetic agent known as U46619 (described by R L Jones et alia in "Chemistry, Biochemistry and Pharmacological Activity of Prostanoids" edited by S M Roberts and F Scheinmann, at page 211; Pergamon Press, 1979) may be used as the agonist;

Experiment [5] has as its system hypertensive effect of U46619. Description: Test (d) hypertensive effect of U46619 in anaesthetised rats. The format is in vivo, rat (Alderley Park strain). The method, then: (d) Male rats (Alderley Park strain) are anaesthetised with sodium pentobarbital and blood pressure is monitored at the carotid artery. The TXA2 mimetic agent is administered intravenously via the jugular vein and an ED50 (dose necessary to produce 50% of the maximum hypertensive effect) is established (n=3). [The ED50 for U46619 is approximately 5 μg/kg.] A test compound is then administered either intravenously (via the jugular vein) or orally (via a cannula) directly into the stomach and the animal challenged with an ED50 dose of U46619, five minutes after dosing with test compound and then successively every ten minutes until the hypertensive effect of U46619 is no longer blocked.

For the compound `N#Cc1ccc([C@@H]2OC[C@H](C/C=C\CCC(=O)O)[C@H](c3ccccc3O)O2)s1` (relative stereo) [Example 9, 4(2)-6([2,4,5-cis]-2-[5-cyano-2-thienyl]-4-o-hydroxphenyl-1,2-dioxan-5-yl)hexenoic acid], in the experiment on TXA2 [1], the “antagonism of one or more of the actions of TXA2 (in words)” value (“antagonism” for short) was “especially potent antagonists”.

In experiment [2], `O=C(O)CC/C=C\C[C@H]1CO[C@@H](c2ccsc2)O[C@H]1c1ccccc1O` (relative stereo) [Example 8, 4(Z)-6-([2,4,5-cis-]-4-o-hydroxy-phenyl-2-[3-thienyl]-1,3-dioxan-5-yl)hexenoic acid] yielded a Kb of 13.8 nM. Further, the dose ratio in experiment [3] was found to be 3. For the same compound, the “pA2 (U46619)” value with TXA2 [4] turned out to be 7.6. The “antagonism” value with TXA2 [1] was “especially potent antagonists”.

The ED50 is the dose at which the effect has come halfway, by size or by number of responders. Turning to `CCCCC[C@H](O)/C=C/[C@@H]1[C@@H](C/C=C\CCCC(=O)O)[C@H]2CO[C@@H]1C2` [Example U46619, reference compound], the ED50 in experiment [5] (Rattus norvegicus, intravenous via the jugular vein, n=3, read-out: ED50 (dose necessary to produce 50% of the maximum hypertensive effect)) is about 5 µg/kg.

Consider `O=C(O)CC/C=C\C[C@H]1CO[C@@H](c2ccc([N+](=O)[O-])s2)O[C@H]1c1ccccc1O` (relative stereo) [Example 4], for which the Kb in experiment [2] stood at 7.54 nM. Further, in experiment [5] (about 80% inhibition, oral dose of 0.05 mg/kg), the “duration of inhibition of the hypertensive effect of U46619” value is on record as “more than 1 hour”. Further, the “inhibition of the hypertensive effect of U46619” value in experiment [5] (oral dose of 0.05 mg/kg, for more than 1 hour) is “about 80%”. Besides, in experiment [3], the dose ratio was over 100. The “pA2 (U46619)” value with TXA2 [4] is 8.3. Further, in the experiment with TXA2 [1], the “antagonism” value was “especially potent antagonists”.

(Values after patent US4822815A, “Dioxane hexenoic acids” (Imperial Chemical Industries PLC, priority 1985, dated 1989).)
